The values that follow come from patent publication US20070293568A1, “Neurocyte Protective Agent” (priority 2006, published 2007).

Assay [1] concerns mice, cerebral ischemia/reperfusion. Particulars: reperfusing after cerebral ischemia, astaxanthin administered; cited from earlier work.
For assay [2], the system named is TH positive cell specific MnSOD-deficient mice (KO mice). The experiment in a line: Body weight change of KO mice given YAX in the diet. To be noted: overall conclusion from body weight, life span and behavior in TH positive cell specific MnSOD-deficient mice. It is filed as in vivo. An excerpt: As genetically modified mice serving as models for neurodegeneration, in which MnSOD has been specifically deficient in dopamine cells of the substantia nigra and noradrenaline cells of the locus ceruleus in the central nervous system, tyrosine hydroxylase (TH) positive cell specific MnSOD-deficient mice were generated based on the method described in WO 2004/014131. Specifically, first, a homozygous MnSOD flox mouse (lox/lox, +/+) was mated with a TH-Cre transgenic mouse controlled by a TH (tyrosine hydroxylase) promoter, so that heterozygous mice (lox/w, Cre/+) having the TH-Cre transgene were generated. Then, the heterozygous mouse and a MnSOD flox mouse were mated to generate the TH positive cell specific MnSOD-deficient mice (lox/lox, Cre/+) of interest.
The YAX prepared in Preparation Example 2 was used as the astaxanthin, and this was administered with the diet. […] It should be noted that for comparison, the KO mice in the control group fed with an ordinary diet not containing YAX were monitored in the same manner.
The body weight was measured once a week, and a Student's t-test was performed. The life span was analyzed using the Kaplan-Meier method. […] The behavior was analyzed by the footprinting test. […] Specifically, ink is applied to the hind feet of the mice and the mice are allowed to walk, and the width of the footprints left behind is analyzed. […]

Assay [3] deals with lipid peroxide in the blood. To be noted: cited from earlier work.

For the molecule `CC1=C(/C=C/C(C)=C/C=C/C(C)=C/C=C/C=C(C)/C=C/C=C(C)/C=C/C2=C(C)C(=O)[C@@H](O)CC2(C)C)C(C)(C)C[C@H](O)C1=O` [astaxanthin], the “depression in motor ability” value in assay [1] is reported as “suppressed”. In addition, the neurocyte protective activity entry in assay [2] is on record as “powerful neurocyte protective activity”. Also, the “lipid peroxide in the blood” value in assay [3] is on record as “suppresses”.
